Patent US20090181910A1, “METHOD OF PREVENTION AND ALLEVIATION OF TOXICITY BY MODULATION OF IRF3” (priority 2006, published 2009)

How the values were obtained:
[1] = Hendrix et al. 1993; cited from earlier work
CRBPII = experiment: RAW 264.7 Q-PCR: CRBPII; format: cell-based, murine
[2] = Survival following APAP treatment; format: in vivo, mice; details: for survival against APAP overdose: APAP 600 mg/kg
Experimental: FIG. 4: Percentage survival following APAP treatment with or without polyI:C. (A) Wildtype (n=8) fasted and were treated with 0.1% NaCl or polyI:C (100 μg) intravenous (i.v.) 24 hours prior to treatment with APAP (600 mg/kg) by intraperitoneal (i.p.) injection. (B) Wildtype and IRF3−/− (n=6-8) fasted and were treated with 0.1% NaCl or polyI:C (100 μg) intravenous (i.v.) 24 hours prior to treatment with APAP (600 mg/kg) by intraperitoneal (i.p.) injection. (C) Wildtype mice (n=6-8) fasted and were treated with 0.1% NaCl or polyI:C (100 μg) intravenous (i.v.) and PCN (75 mg/kg) intraperitoneal (i.p.) 24 hours prior to treatment with APAP (175 mg/kg) by intraperitoneal (i.p.) injection.
Age and sex matched 6-9 week old mice were used for all experiments. C57/B16 mice were obtained from Jackson Laboratory. IRF3^−/− mice were obtained from Dr. T. Taniguchi. For APAP hepatotoxicity analysis, mice fasted for […] and then administered Vehicle (0.1% NaCl) or APAP (175-600 mg/kg) by intraperitoneal injection (i.p.). For serum and histological studies, mice were sacrificed at 6-7 hours post injection and serum and liver samples were retrieved. For survival studies, mice were studied for up to 5 days. For polyI:C studies, mice were also treated with 0.1% NaCl or polyI:C (100 μg) intravenous (i.v.) 12-24 hours prior to APAP treatment. To study the effects of PCN on APAP treatment, mice were treated with PCN (75 mg/kg) or control (1% DMSO, corn oil) by intraperitoneal (i.p.) 12-24 hours prior to APAP treatment. To study the effects of ethanol (EtOH) on APAP treatment, mice were given 20% EtOH in water ad libidum for 5 days prior to APAP therapy. PolyI:C treatment for these experiments occurred at Day 3 and Day 5. Serum alanine aminotransferase (ALT) levels were determined using manufacturer's protocol (TECO Diagnostics). For H&E staining, liver samples were fixed in formalin for 48 hours. H&E stainings were done by UCLA Tissue Procurement Core Laboratory (TPCL).

[3] = Dolphin et al. 1987; cited from earlier work

polyinosinic:polycytidylic acid [polyI:C]
toxicity of polyI:C [1]: can be taken at high dosages without any toxicity
9cRA induction of CRBPII (CRBPII): unable to repress 9cRA induction of CRBPII
survival against APAP overdose ([2]; IRF3 deficient mice, FIG. 4B): did not protect from APAP overdose
survival with APAP plus PCN ([2]; polyI:C 100 μg i.v. and PCN 75 mg/kg before APAP 175 mg/kg, FIG. 4C): prevents overdose from the combination of APAP and cytochrome P450 inducers such as PCN
survival against APAP overdose ([2]; wildtype mice, polyI:C 100 μg i.v. 24 h prior, FIG. 4A): extremely effective at preventing death from APAP overdose
ASA metabolism after polyI:C treatment [3]: results in defective ASA metabolism
